These results are taken from patent US10526502B2, “Container coating system” (SWIMC LLC, priority 2012, dated 2020).

For the first data set, the system named is MCF-7, clone WS8, cells. In words: MCF-7 cell proliferation assay of estrogenic activity. It counts as cell-based, human. The note with it: logarithmic (base 10) Relative Proliferative Effect vs 17-beta estradiol; values 'expected or measured'. From the text: The MCF-7 assay is a useful test for assessing whether a polyhydric phenol compound is appreciably non-estrogenic. The MCF-7 assay uses MCF-7, clone WS8, cells to measure whether and to what extent a substance induces cell proliferation via estrogen receptor (ER)-mediated pathways. The method is described in “Test Method Nomination: MCF-7 Cell Proliferation Assay of Estrogenic Activity” submitted for validation by CertiChem, Inc. to the National Toxicology Program Interagency Center for the Evaluation of Alternative Toxicological Methods (NICEATM) on Jan. 19, 2006 (available online at iccvam.niehs.nih.gov/methods/endocrine/endodocs/SubmDoc.pdf).
A brief summary of the method of the aforementioned MCF-7 assay is provided below. MCF-7, clone WS8, cells are maintained at 37° C. in RMPI (Roswell Park Memorial Institute medium) containing Phenol Red (e.g., GIBCO Catalog Number 11875119) and supplemented with the indicated additives for routine culture. An aliquot of cells maintained at 37° C. are grown for two days in phenol-free media containing 5% charcoal stripped fetal bovine serum in a 25 cm^2 tissue culture flask. Using a robotic dispenser such as an EPMOTION™ 5070 unit from Eppendorf AG, MCF-7 cells are then seeded at 400 cells per well in 0.2 ml of hormone-free culture medium in CORNING™ 96-well plates from Corning Life Sciences. The cells are adapted for 3 days in the hormone-free culture medium prior to adding the chemical to be assayed for estrogenic activity. The media containing the test chemical is replaced daily for 6 days. At the end of the 7 day exposure to the test chemical, the media is removed, the wells are washed once with 0.2 ml of HBSS (Hanks' Balanced Salt Solution), and then assayed to quantify amounts of DNA per well using a micro-plate modification of the Burton diphenylamine (DPA) assay, which is used to calculate the level of cell proliferation. […]
Table I shown below includes exemplary preferred polyhydric phenol compounds of Formula II and their expected or measured logarithmic RPE values in the MCF-7 assay.
On to `C[C@]12CC[C@@H]3c4ccc(O)cc4CC[C@H]3[C@@H]1CC[C@@H]2O` [17β-estradiol], for which the “Log RPE” value was found to be 2.00.

As for `Oc1ccc(Cc2ccc(O)cc2)cc1` [Bisphenol F], the “Log RPE” value is recorded as −2.

With `O=S(=O)(c1ccc(O)cc1)c1ccc(O)cc1` [Bisphenol S], the “Log RPE” value is recorded as −2.

A further data set has as its target T1, human estrogen receptor (Homo sapiens, UniProt P03372).
T1 sequence (P03372 1-595): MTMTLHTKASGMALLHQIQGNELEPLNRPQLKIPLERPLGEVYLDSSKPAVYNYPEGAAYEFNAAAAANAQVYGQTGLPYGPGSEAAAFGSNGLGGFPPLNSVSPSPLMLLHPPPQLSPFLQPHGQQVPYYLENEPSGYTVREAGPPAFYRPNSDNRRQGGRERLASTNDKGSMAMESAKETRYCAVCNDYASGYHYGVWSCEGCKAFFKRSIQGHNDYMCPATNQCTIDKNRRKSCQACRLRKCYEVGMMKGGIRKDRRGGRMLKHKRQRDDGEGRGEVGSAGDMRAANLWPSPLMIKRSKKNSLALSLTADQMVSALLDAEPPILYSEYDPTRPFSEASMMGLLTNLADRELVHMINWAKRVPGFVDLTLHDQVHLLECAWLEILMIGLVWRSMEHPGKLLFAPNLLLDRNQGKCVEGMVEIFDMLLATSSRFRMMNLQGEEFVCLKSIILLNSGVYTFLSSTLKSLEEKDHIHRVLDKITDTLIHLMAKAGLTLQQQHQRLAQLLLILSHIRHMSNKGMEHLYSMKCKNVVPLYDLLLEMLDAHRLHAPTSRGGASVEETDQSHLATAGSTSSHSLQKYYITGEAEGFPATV
In words: suitable in vitro assay whose results are directly correlated to the MCF-7 assay. Conditions: in vitro assay correlated to MCF-7 through common reference compounds.
As for `Cc1cc(Cc2cc(C)cc(C(C)(C)C)c2O)c(O)c(C(C)(C)C)c1` [Structure 9], the estrogenic activity result is reported as “do not exhibit appreciable estrogenic activity”.

Regarding `CC(C)(C)c1cc(Cc2cc(C(C)(C)C)c(O)c(C(C)(C)C)c2)cc(C(C)(C)C)c1O` [Structure 8, 4,4′-methylenebis(2,6-di-t-butylphenol)], the estrogenic activity result is “do not exhibit appreciable estrogenic activity”.

In the case of `CC(C)(C)c1cc(O)c(C(C)(C)C)cc1O` [Structure 12, 2,5-di-t-butylhydroquinone], the estrogenic activity result is on record as “do not exhibit appreciable estrogenic activity”.

As for `CCCC(c1cc(C(C)(C)C)c(O)cc1C)c1cc(C(C)(C)C)c(O)cc1C` [Structure 7, 4,4′-butylidenebis(2-t-butyl-5-methylphenol)], the estrogenic activity result is recorded as “do not exhibit appreciable estrogenic activity”.

`Cc1cc(Cc2cc(C)c(O)c(C)c2)cc(C)c1O` [Structure 6, 4,4′-methylenebis(2,6-dimethylphenol)]: the estrogenic activity result is “do not exhibit appreciable estrogenic activity”.

System in a further data set: not listed separately
Briefly: suitable genotoxicity assays (e.g., Ames II assay). It counts as cell-based.
Details: not given
The protocol:
A solution of 4,4′-methylenebis(2,6-di-t-butylphenol) (500 grams, 1.076 moles obtained from Albemarle Corporation) in anhydrous dimethylformamide (1.5 liters) was cooled to −10° C. and a solution of sodium tert-pentoxide (374 grams, 3.23 moles) in anhydrous dimethylformamide (1.5 liters) was added dropwise at −10 to −5° C. The mixture was stirred for 30 minutes at −10° C. Epichlorohydrin (1.9 liters, 24.2 moles) was added via dropping funnel at −10 to −5° C. The solution was allowed to warm up to room temperature and then was heated for 16 hours at a temperature of from 75 to 82° C. After cooling down to ambient temperature, the mixture was added to cold tap water (12 liters). Ethyl acetate (5 liters) was added to the mixture, which was stirred for 10 minutes and separated. The aqueous layer was extracted again with additional ethyl acetate (3 liters). The combined ethyl acetate extracts were washed twice with brine (2×6 liters), dried over anhydrous sodium sulfate (600 grams), and filtered. The solvent was removed under reduced pressure to give 887 grams of crude product as a purple oil. The crude product was dissolved in toluene (600 milliliters) and passed over a silica gel pad (1.4 kilograms), and eluted with a mixture of toluene and heptane (8 parts toluene to 2 parts heptane). The fractions containing product were combined and evaporated under reduced pressure. […]
(In general: The Ames test detects mutagens through reverse mutation in bacteria.)
For `CCCC(c1cc(C(C)(C)C)c(OCC2CO2)cc1C)c1cc(C(C)(C)C)c(OCC2CO2)cc1C` (stereo not shown) [Diglycidyl ether of 4,4′Butylidenebis(2-t-butyl-5-methylphenol))], the genotoxicity entry is on record as “non-genotoxic”.

In the case of `CC(C)(C)c1cc(Cc2cc(C(C)(C)C)c(OCC3CO3)c(C(C)(C)C)c2)cc(C(C)(C)C)c1OCC1CO1` (stereo not shown) [Diglycidyl ether of 4,4′-methylenebis(2,6-di-tert-butylphenol)], the genotoxicity result is recorded as “non-genotoxic”.
